According to patent publication US10647713B2 (Nimbus Lakshmi, Inc., priority 2016, dated 2020):

The molecules below were run against human TYK2 (JH2domain-pseudokinase) (Homo sapiens (Human), UniProt P29597) (assay: TYK2 JH2 Domain Binding Assay (KINOMEscan, DiscoveRx)). Conditions: 11-point dilution, duplicate.
Outline: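 Kd from duplicate 11-point 3-fold dilutions starting at 30,000 nM, fitted by Hill equation with slope fixed at −1. Compounds (final 0.9% DMSO) displace DNA-tagged HEK293-expressed TYK2 JH2 fusion (<0.1 nM) from ligand-coated beads over 1 h at room temperature; eluted kinase read by qPCR.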

Sequence of human TYK2 (JH2domain-pseudokinase) (P29597 556-888): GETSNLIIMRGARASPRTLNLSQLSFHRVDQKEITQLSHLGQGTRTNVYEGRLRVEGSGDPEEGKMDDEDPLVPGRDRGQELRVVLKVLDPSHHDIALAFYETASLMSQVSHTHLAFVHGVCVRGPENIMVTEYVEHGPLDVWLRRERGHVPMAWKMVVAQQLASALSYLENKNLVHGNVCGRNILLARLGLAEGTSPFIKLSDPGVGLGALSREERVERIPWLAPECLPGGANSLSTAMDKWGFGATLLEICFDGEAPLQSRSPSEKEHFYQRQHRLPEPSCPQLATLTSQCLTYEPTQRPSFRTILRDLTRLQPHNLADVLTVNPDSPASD

| Kd [nM] | Structure (SMILES) |
| --- | --- |
| 0.1 to 0.5 | Cc1nc2c(Nc3ccccc3S(C)(=O)=O)cc(Nc3ccc(C(C)C)c(C#N)n3)nc2[nH]1 [I-490, 3-isopropyl-6-((2-methyl-7-((2-(methylsulfonyl)phenyl)amino)-3H-imidazo[4,5-b]pyridin-5-yl)amino)picolinonitrile] |
| 0.1 to 0.5 | CN(c1cc(C2CCCCO2)ccc1Nc1cc(NC(=O)C2CC2)nc2[nH]c(C(F)F)nc12)S(C)(=O)=O (centres unmarked) [I-369, N-(2-(difluoromethyl)-7-((2-(N-methylmethylsulfonamido)-4-(tetrahydro-2H-pyran-2-yl)phenyl)amino)-3H-imidazo[4,5-b]pyridin-5-yl)cyclopropanecarboxamide] |
| 0.1 to 0.5 | Cc1nn(C)c(C)c1-c1ccc(Nc2cc(NC(=O)C3CC3)nc3[nH]c(C(F)F)nc23)c(S(C)(=O)=O)c1 [I-446, N-(2-(difluoromethyl)-7-((2-(methylsulfonyl)-4-(1,3,5-trimethyl-1H-pyrazol-4-yl)phenyl)amino)-3H-imidazo[4,5-b]pyridin-5-yl)cyclopropanecarboxamide] |
| 0.5 to 1 | Cc1nc2c(Nc3ccc([C@H]4CCCO4)cc3S(C)(=O)=O)cc(NC(=O)[C@@H]3CC3(F)F)nc2[nH]1 [I-422, (S)-2,2-difluoro-N-(2-methyl-7-((2-(methylsulfonyl)-4-((R)-tetrahydrofuran-2-yl)phenyl)amino)-3H-imidazo[4,5-b]pyridin-5-yl)cyclopropane-1-carboxamide] |
| 0.1 to 0.5 | COCCOc1ccc(Nc2cc(Nc3ccc(F)cc3S(C)(=O)=O)c3nc(C(F)F)[nH]c3n2)nc1C#N [I-621, 6-((2-(difluoromethyl)-7-((4-fluoro-2-(methylsulfonyl)phenyl)amino)-3H-imidazo[4,5-b]pyridin-5-yl)amino)-3-(2-methoxyethoxy)picolinonitrile] |
| 0.1 to 0.5 | CS(=O)(=O)c1cc(C2CCC2)ccc1Nc1cc(NC(=O)[C@@H]2C[C@@H]2F)nc2[nH]c(C(F)F)nc12 [I-433, (1S, 2S)—N-(7-((4-cyclobutyl-2-(methylsulfonyl)phenyl)amino)-2-(difluoromethyl)-3H-imidazo[4,5-b]pyridin-5-yl)-2-fluorocyclopropane-1-carboxamide] |
| 0.1 to 0.5 | Cc1ncc(Nc2cc(Nc3ccc([C@H]4CCCCO4)cc3S(C)(=O)=O)c3nc(C(F)F)[nH]c3n2)nc1C [I-486, (R)-2-(difluoromethyl)-N5-(5,6-dimethylpyrazin-2-yl)-N7-(2-(methylsulfonyl)-4-(tetrahydro-2H-pyran-2-yl)phenyl)-3H-imidazo[4,5-b]pyridine-5,7-diamine] |
| 1 to 10 | COc1c(Nc2cc(Nc3cccc(C(F)(F)F)n3)nc3[nH]c(C)nc23)cccc1-c1cnn(C)n1 [I-606, N7-(2-methoxy-3-(2-methyl-2H-1,2,3-triazol-4-yl)phenyl)-2-methyl-N5-(6-(trifluoromethyl)pyridin-2-yl)-3H-imidazo[4,5-b]pyridine-5,7-diamine] |
| 1 to 10 | Cc1nc2c(Nc3ccc(-c4nn(C)cc4C)cc3S(C)(=O)=O)cc(NC(=O)C3CC3(C)C)nc2[nH]1 (centres unmarked) [I-363, N-(7-((4-(1,4-dimethyl-1H-pyrazol-3-yl)-2-(methylsulfonyl)phenyl)amino)-2-methyl-3H-imidazo[4,5-b]pyridin-5-yl)-2,2-dimethylcyclopropane-1-carboxamide] |
| 0.5 to 1 | Cc1nc2c(Nc3ccc(-c4cc(C)n(C)n4)cc3S(C)(=O)=O)cc(Nc3cccc(C(F)(F)F)n3)nc2[nH]1 [I-299, N7-(4-(1,5-dimethyl-1H-pyrazol-3-yl)-2-(methylsulfonyl)phenyl)-2-methyl-N5-(6-(trifluoromethyl)pyridin-2-yl)-3H-imidazo[4,5-b]pyridine-5,7-diamine] |
| < 0.1 | Cc1nc2c(Nc3ccc(-c4cc(C)n(C)n4)cc3S(C)(=O)=O)cc(Nc3cnc(C)c(C)n3)nc2[nH]1 [I-508, N7-(4-(1,5-dimethyl-1H-pyrazol-3-yl)-2-(methylsulfonyl)phenyl)-N5-(5,6-dimethylpyrazin-2-yl)-2-methyl-3H-imidazo[4,5-b]pyridine-5,7-diamine] |
| 0.1 to 0.5 | Cc1nc2c(Nc3ccc(-c4cnn(C)c4C)cc3S(C)(=O)=O)cc(Nc3cccc(C(F)(F)F)n3)nc2[nH]1 [I-585, N7-(4-(1,5-dimethyl-1H-pyrazol-4-yl)-2-(methylsulfonyl)phenyl)-2-methyl-N5-(6-(trifluoromethyl)pyridin-2-yl)-3H-imidazo[4,5-b]pyridine-5,7-diamine] |
| 0.5 to 1 | Cc1nc2c(Nc3ccc(C4=NC(C)(C)CS4)cc3S(C)(=O)=O)cc(NC(=O)C3CC3)nc2[nH]1 [I-568, N-(7-((4-(4,4-dimethyl-4,5-dihydrothiazol-2-yl)-2-(methylsulfonyl)phenyl)amino)-2-methyl-3H-imidazo[4,5-b]pyridin-5-yl)cyclopropanecarboxamide] |

More lines, now with the values behind:

| Structure (SMILES) | Kd [nM] |
| --- | --- |
| Cc1nc(-c2ccc(Nc3cc(Nc4cnc(C)c(C)n4)nc4[nH]c(C)nc34)c(N(C)S(C)(=O)=O)c2)n(C)n1 [I-173, N-(5-(1,3-dimethyl-1H-1,2,4-triazol-5-yl)-2-((5-((5,6-dimethylpyrazin-2-yl)amino)-2-methyl-3H-imidazo[4,5-b]pyridin-7-yl)amino)phenyl)-N-methylmethanesulfonamide] | > 10 |
| Cc1nc2c(Nc3ccc(-c4cnn(C)c4)cc3N(C)S(C)(=O)=O)cc(NC(=O)[C@@H]3CC3(F)F)nc2[nH]1 [I-233, (S)-2,2-difluoro-N-(2-methyl-7-((4-(1-methyl-1H-pyrazol-4-yl)-2-(N-methylmethylsulfonamido)phenyl)amino)-3H-imidazo[4,5-b]pyridin-5-yl)cyclopropane-1-carboxamide] | 0.1 to 0.5 |
| COc1c(Nc2cc(NC(=O)C3CC3)nc3[nH]c(C)nc23)cccc1-n1nc(C)nc1C [I-149, N-(7-((3-(3,5-dimethyl-1H-1,2,4-triazol-1-yl)-2-methoxyphenyl)amino)-2-methyl-3H-imidazo[4,5-b]pyridin-5-yl)cyclopropanecarboxamide] | > 10 |
| COCc1nc(-c2ccc(Nc3cc(NC(=O)C4CC4)nc4[nH]c(C(F)F)nc34)c(S(C)(=O)=O)c2)sc1C [I-500, N-(2-(difluoromethyl)-7-((4-(4-(methoxymethyl)-5-methylthiazol-2-yl)-2-(methylsulfonyl)phenyl)amino)-3H-imidazo[4,5-b]pyridin-5-yl)cyclopropanecarboxamide] | 0.1 to 0.5 |
| COc1cc(N2CCCC2=O)ccc1Nc1cc(NC(=O)C2CC2)nc2[nH]c(C(F)F)nc12 [I-18] | 1 to 10 |
| CS(=O)(=O)c1cc(Cl)ccc1Nc1cc(NC(=O)[C@H]2C[C@H]2F)nc2[nH]c(C(F)F)nc12 [I-205] | 0.5 to 1 |
| COc1c(Nc2cc(NC(=O)C3CC3)nc3[nH]c(CO)nc23)cccc1-c1ncn(C)n1 [I-10, N-(2-(hydroxymethyl)-7-((2-methoxy-3-(1-methyl-1H-1,2,4-triazol-3-yl)phenyl)amino)-3H-imidazo[4,5-b]pyridin-5-yl)cyclopropanecarboxamide] | 1 to 10 |
| CC1(C)CN=C(c2ccc(Nc3cc(NC(=O)C4CC4)nc4[nH]c(C(F)F)nc34)c(S(C)(=O)=O)c2)O1 [I-283, N-(2-(difluoromethyl)-7-((4-(5,5-dimethyl-4,5-dihydrooxazol-2-yl)-2-(methylsulfonyl)phenyl)amino)-3H-imidazo[4,5-b]pyridin-5-yl)cyclopropanecarboxamide] | 1 to 10 |
| COc1cc(-c2cncn2C)ccc1Nc1cc(Nc2cccc(C#N)n2)nc2[nH]c(C(F)F)nc12 [I-143, 6-((2-(difluoromethyl)-7-((2-methoxy-4-(1-methyl-1H-imidazol-5-yl)phenyl)amino)-3H-imidazo[4,5-b]pyridin-5-yl)amino)picolinonitril] | 1 to 10 |
| COc1cc(-c2cncn2C)ccc1Nc1cc(Nc2cnc(C)c(C)n2)nc2[nH]c(C)nc12 [I-152, N5-(5,6-dimethylpyrazin-2-yl)-N7-(2-methoxy-4-(1-methyl-1H-imidazol-5-yl)phenyl)-2-methyl-3H-imidazo[4,5-b]pyridine-5,7-diamine] | 1 to 10 |
| Cc1csc(-c2ccc(Nc3cc(Nc4cc5n(n4)CCOC5)nc4[nH]c(C)nc34)c(S(C)(=O)=O)c2)n1 [I-477, N5-(6,7-dihydro-4H-pyrazolo[5,1-c][1,4]oxazin-2-yl)-2-methyl-N7-(2-(methylsulfonyl)-4-(4-methylthiazol-2-yl)phenyl)-3H-imidazo[4,5-b]pyridine-5,7-diamine] | 0.1 to 0.5 |
| CS(=O)(=O)c1cc([C@H]2CCCO2)ccc1Nc1cc(NC(=O)[C@@H]2CC2(F)F)nc2[nH]c(C(F)F)nc12 [I-306, (S)—N-(2-(difluoromethyl)-7-((2-(methylsulfonyl)-4-((R)-tetrahydrofuran-2-yl)phenyl)amino)-3H-imidazo[4,5-b]pyridin-5-yl)-2,2-difluorocyclopropane-1-carboxamide] | 0.5 to 1 |
| COc1c(Nc2cc(Nc3cnc(C(C)(C)OC)c(C)n3)nc3[nH]c(C)nc23)cccc1-c1nnn(C)n1 [I-138, N7-(2-methoxy-3-(2-methyl-2H-tetrazol-5-yl)phenyl)-N5-(5-(2-methoxypropan-2-yl)-6-methylpyrazin-2-yl)-2-methyl-3H-imidazo[4,5-b]pyridine-5,7-diamines] | 1 to 10 |
| COc1c(Nc2cc(NC(=O)C3CC3)nc3[nH]c(C)nc23)cccc1-c1nn(C)nc1C [I-133, N-(7-((3-(2,5-dimethyl-2H-1,2,3-triazol-4-yl)-2-methoxyphenyl)amino)-2-methyl-3H-imidazo[4,5-b]pyridin-5-yl)cyclopropanecarboxamide] | 1 to 10 |
| Cc1nc2c(Nc3ccc(-c4cnn(C)c4)cc3N(C)S(C)(=O)=O)cc(NC(=O)[C@@H]3C[C@@H]3F)nc2[nH]1 [I-209, (1S,2S)-2-fluoro-N-(2-methyl-7-((4-(1-methyl-1H-pyrazol-4-yl)-2-(N-methylmethylsulfonamido)phenyl)amino)-3H-imidazo[4,5-b]pyridin-5-yl)cyclopropane-1-carboxamide] | 0.1 to 0.5 |
| Cc1csc(-c2ccc(Nc3cc(Nc4cc5n(n4)CCOC5)nc4[nH]c(C(F)F)nc34)c(S(C)(=O)=O)c2)n1 [I-476] | 0.1 to 0.5 |
